Holding throughout (assay type): ADME, organism-based
Common to all, as to conditions: in vivo

Series [1] is filed under the species Homo sapiens. Briefly: Drug level in patient serum with chronic graft-versus-host disease by HPLC analysis.
For series [2], the species on record is Homo sapiens. Briefly: Drug level in patient serum with acute graft-versus-host disease by HPLC analysis.
For series [3], the species on record is Homo sapiens. Briefly: Drug level in patient serum with infection by HPLC analysis.
For series [4], the species on record is Homo sapiens. Description: Drug level in patient serum with invasive aspergillosis by HPLC analysis.

In ChEMBL document CHEMBL1649188, “Posaconazole therapeutic drug monitoring: a reference laboratory experience” (Antimicrob Agents Chemother, 2009) one finds Drug uptake data, which are given here for one compound.

On to `CC[C@@H]([C@H](C)O)n1ncn(-c2ccc(N3CCN(c4ccc(OC[C@@H]5CO[C@@](Cn6cncn6)(c6ccc(F)cc6F)C5)cc4)CC3)cc2)c1=O` [POSACONAZOLE], for which the Drug uptake in the series filed under Homo sapiens [1] worked out at 1.47 µg/mL; in the series filed under Homo sapiens [2], 0.958 µg/mL; in the series filed under Homo sapiens [3] it was 0.611 µg/mL; in the series filed under Homo sapiens [4], 0.134 µg/mL.
